Results: patent publication US12374538B2, “Systems and methods for quantifying an analyte extracted from a sample” (Purdue Research Foundation, priority 2014, dated 2025)
Several values for one entry are separate records, joined by “and”; a condition that tells them apart may be missing. Identical values can stand only once.

Key:
cholinesterase (ChE) = conditions: human whole blood diluted 10 times, acetylthiocholine 1.8 mg/mL, 5 min incubation in capillary, vs control
Description: For testing of a particular solvent, 5 μL blood sample (diluted) was injected into the capillary with the extraction solvent plug immediately after the mixing the acetylthiocholine into the blood. After the 5 min incubation in capillary, the TCh/ATch ratio was measured using SFME nanoESI MS. For the control, 5 min after the mixing acetylthiocholine into the diluted blood, the sample was taken and analyzed immediately using SFME nanoESI MS with ethyl acetate as the extraction phase. Spray voltage of 1.5 kV was used for nanoESI.
SFME-nanoESI was applied for monitoring the enzymatic activity of cholinesterase (ChE) in whole blood samples. […] The blood sample was diluted 10 times to slow down the reaction rate as well as to facilitate the slug flows for SFME. The substrate acetylthiocholine iodine was added into the diluted blood sample at a concentration of 1.8 mg/mL, and then 5 μL sample was taken immediately and injected into the capillary with 5 μL extraction phase. The capillary with the sample and the extraction solvent was left in room temperature 25° C. for incubation. The SFME-nanoESI could be performed repeatedly on the same sample and the ratio of the substrate ATCh and the reaction product TCh could be monitored as a function of time to characterize the enzymatic activity of the ChE. […]

[1] = log([solute]octanol/[solute]water), un-ionized compound; cited from earlier work

| SMILES | reduction of ChE activity due to contact with extraction solvent (cholinesterase (ChE)) | Log P (partition coefficient) [1] |
| --- | --- | --- |
| CCOC(C)=O [ethyl acetate] | minimal | – |
| CN1[C@H]2CC[C@@H]1[C@@H](C(=O)O)[C@@H](OC(=O)c1ccccc1)C2 [benzoylecgonine] | – | −0.59 and −0.6 |
| Cc1ccc(/N=C/N(C)/C=N/c2ccc(C)cc2C)c(C)c1 [amitraz] | – | 5 |
| ClC(Cl)Cl [chloroform] | more than 60% | – |
| N[C@@H](Cc1ccccc1)C(=O)O [phenylalanine] | – | −1.38 |
| CN1C(=O)CC[C@H]1c1cccnc1 [cotinine] | – | 0.07 |
